This is an account of results in PMC9020739, “Identification of a two-component regulatory system involved in antimicrobial peptide resistance in Streptococcus pneumoniae” (PLoS Pathogens, 2022).

Where a SMILES comes first, the peptide text is derived from it. Bridges are numbered along the chain shown (N, C = ends). [ ]: non-standard residue; d: D form. The star is where a group is joined. Ileψ(thiazoline)Cys = CC[C@H](C)[C@H](N)C1=N[C@H](C(=O)*)CS1; dOrn = NCCC[C@@H](N)C(=O)O

The assay concerns the target BceAB transporter from S. pneumoniae (Streptococcus pneumoniae, UniProt A0A0H2ZN40). The assay is classed as biochemical. To be noted: 5 mM nucleotide, 300 μg/mL bacitracin. Here is the method: E. coli BL21(DE3) cells were transformed with pRSF-Duet1-BceAB WT, K48A or E170Q and selected on LB-agar plates containing 50 μg/mL kanamycin. One colony was inoculated into in 2L-baffled flasks containing 500 mL of 2YT medium and 50 μg/mL kanamycin and grown at 37°C, 180 rpm to OD600 of 0.6. Protein expression was induced by adding IPTG to a final concentration of 1 mM. Induction was performed overnight at 25°C and cells were harvested by centrifugation at 7,000 g for 20 min.
Cells were resuspended in buffer A (HEPES-NaOH 100 mM pH 8.0, NaCl 150 mM) and lysed by passaging them three times through a cell disruptor (Microfluidizer, Microfluidics) at 18,000 psi (or 1,24 x 108 Pa). Undisrupted cells and cell debris were removed by centrifugation at 15,000 x g for 30 min at 4°C. Membranes were harvested from the supernatant after ultracentrifugation at 150,000 x g for 1 h at 4°C. Membranes were resuspended in 20 mL of buffer A and centrifuged once again at 150,000 x g for 1 h at 4°C. Membrane pellets were homogenized in buffer HEPES-NaOH 100 mM pH 8.0, NaCl 150 mM and 20% glycerol, and stored at -80°C.
For the purification of BceAB, membranes from 0,5 L cell culture were diluted in buffer B (100 mM d’HEPES-NaOH pH 8, 150 mM NaCl, 10% glycerol) to a protein concentration of 4 mg/mL and solubilized with 0.5% (w/v) LMNG for 2 h at 4°C. After ultracentrifugation at 150,000 x g for 1 h at 4°C, the supernatant containing solubilized proteins was diluted four times using buffer B and loaded on Ni^2+-charged immobilized metal-ion affinity chromatography (IMAC) column (1 mL HisTrap HP, Cytiva). The column was washed with 10 mL of buffer B containing 0.005% (w/v) LMNG and 20 mM of imidazole. The column was further washed with the same buffer until OD280nm reached basal levels. BceAB was eluted by buffer B containing 0.005% (w/v) LMNG and an imidazole gradient from 20 to 500 mM of imidazole. Purified BceAB was dialyzed into buffer B containing 0.005% (w/v) LMNG and stored at -80°C.
The proteoliposomes were prepared as previously described for the transporter BmrA [50]. Proteoliposomes were loaded on sucrose gradient with different layers of 400 μL of 50 mM HEPES-KOH pH 8.0 buffer containing 30, 20, 15 or 10% of sucrose. One mL of proteoliposomes was loaded on the top of the sucrose gradient and ultra-centrifuged at 200,000 x g for 12 h at 4°C. Proteoliposomes were typically collected from the 15% layer and were loaded on SDS-PAGE to analyze and quantify the presence of BceAB by using a standard-curve of purified BceAB and ImageJ.
These activities were performed as previously described.

Take `CC[C@H](C)[C@H](N)C1=N[C@H](C(=O)N[C@@H](CC(C)C)C(=O)N[C@H](CCC(=O)O)C(=O)N[C@H](C(=O)N[C@H]2CCCCNC(=O)[C@H](CC(N)=O)NC(=O)[C@@H](CC(=O)O)NC(=O)[C@H](Cc3cnc[nH]3)NC(=O)[C@@H](Cc3ccccc3)NC(=O)[C@H]([C@@H](C)CC)NC(=O)[C@@H](CCCN)NC2=O)[C@@H](C)CC)CS1` [bacitracin] ({Ileψ(thiazoline)Cys}-L[dE]IK[dOrn]I[dF]H[dD]N; lactam 4-C (inferred); N-terminus assumed): the “ATPase activity of wild-type BceAB stimulated by bacitracin” value (after reconstitution in liposomes, calculated on total protein added to the reconstitution mixture) is given as 0.6–1 μmol of ATP hydrolyzed/min/mg. Also, where the note is “proteoliposomes further separated on sucrose gradient”, the “Specific ATPase activity of wild-type BceAB in the presence of bacitracin” value is “up to 2 μmol ATP hydrolyzed/min/mg”.
